Results published in patent US8680290B2, “Isoxazoline derivatives and their use as herbicides” (Syngenta Limited, priority 2004, dated 2014).

Assays:
[1] = tested on: Monocotyledonous and dicotyledonous test plants; assay: Example B1 herbicidal action, application post-emergence (Table B1a); assay type: in vivo; details: 250 g/ha, evaluated after 3 weeks, scale 0-10
Method: Monocotyledonous and dicotyledonous test plants were sown in seed trays in standard soil. Immediately after sowing (pre-emergence) or after 8 to 9 days cultivation (post-emergence), the test compounds were applied by spraying in the form of an aqueous solution derived from the formulation of the technical active ingredient in 0.6 ml acetone and 45 ml formulation solution containing 10.6% Emulsogen EL (CAS RN 61791-12-6), 42.2% N-methylpyrrolidone, 42.2% dipropylene glycol monomethyl ether (CAS RN 34590-94-8) and 0.2% X-77 (CAS RN 11097-66-8). The test plants were then grown in a greenhouse under optimum conditions. After a test duration of 3 weeks (post-emergence) or 4 weeks (pre-emergence), the test was evaluated (10=total damage to plant, 0=no damage to plant).

[2] = tested on: Monocotyledonous and dicotyledonous test plants; assay: Example B1 herbicidal action, application pre-emergence (Table B1b); assay type: in vivo; details: 250 g/ha, evaluated after 4 weeks
Method in brief: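 Compounds sprayed as aqueous solution from acetone/Emulsogen EL/NMP/dipropylene glycol monomethyl ether/X-77 formulation onto soil right after sowing (pre-emergence) or onto 8–9-day plants (post-emergence); greenhouse-grown. Damage scored 0 (none) to 10 (total) after 4 weeks pre- or 3 weeks post-emergence.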

Structure (SMILES) | herbicidal damage rating, Abutilon [1] | herbicidal damage rating, Amaranthus [1] | herbicidal damage rating, Digitaria [1] | herbicidal damage rating, Panicum [1] | herbicidal damage rating, Setaria [1] | herbicidal damage rating, Sida [1] | herbicidal action (damage rating 0-10), Amaranthus [2] | herbicidal action (damage rating 0-10), Digitaria [2] | herbicidal action (damage rating 0-10), Panicum [2] | herbicidal action (damage rating 0-10), Setaria [2] | herbicidal action (damage rating 0-10), Sida [2]
CC1(C)CC(S(=O)(=O)C(F)(F)c2ccccc2)=NO1 [1.77] | 5 | 0 | 8 | 5 | 6 | 3 | 10 | 10 | 10 | 10 | 7
Cc1ccccc1C(F)(F)S(=O)(=O)C1=NOC(C)(C)C1 [1.92] | 5 | 3 | 8 | 5 | 7 | 7 | 10 | 10 | 10 | 10 | 8
CC1(C)CC(S(=O)(=O)C(F)(F)c2ccccc2F)=NO1 [1.94] | 5 | 7 | 8 | 7 | 8 | 0 | 10 | 10 | 10 | 10 | 8
CC1(C)CC(S(=O)(=O)C(F)(Cl)c2ccccc2[S+]([O-])C(F)(F)F)=NO1 (centres unmarked) [1.97] | 4 | 5 | 8 | 5 | 7 | 0 | 8 | 10 | 10 | 9 | 0
Cc1ccc(F)c(C(Br)S(=O)(=O)C2=NOC(C)(C)C2)c1F (centres unmarked) [1.102] | 0 | 0 | 8 | 5 | 4 | 2 | 8 | 10 | 10 | 9 | 2
COc1ccccc1C(F)S(=O)(=O)C1=NOC(C)(C)C1 (centres unmarked) [1.104] | 3 | 0 | 8 | 7 | 7 | 2 | 0 | 9 | 10 | 8 | 3
Cc1ccc(F)c(C(F)S(=O)(=O)C2=NOC(C)(C)C2)c1F (centres unmarked) [1.105] | 2 | 5 | 8 | 5 | 4 | 7 | 10 | 8 | 10 | 10 | 7
